Assay results published in US20090304686A1, “INTERFERING IN ACTIVATION OF AN IMMUNE CELL BY INFLUENCING INTERACTION OF LAIR AND COLLAGEN” (UNIVERSOTAIR MEDISCH CENTRUM UTRECHT, priority 2006, published 2009).
Entries after “also recorded” stand apart in the source; their conditions may differ.

Key:
[1] = molecular target: T1, hLAIR-1-CD3ζ chimera (Homo sapiens, UniProt Q6GTX8); assay: 2B4 NFAT-GFP reporter cell assay, hLAIR-1-CD3ζ chimera; type: cell-based; conditions: for most potent hLAIR-1 activators in order of strength: order: III-30, II-56, II-30, III-38, II-42, III-51; for functional triggering of hLAIR-1-CD3ζ (GFP expression, in words): plate-bound ligand
T1 construct: a chimeric protein consisting of the extracellular domain of hLAIR-1 fused to the transmembrane and intracellular domain of CD3ζ; expressed in transfected cells; host or cells: Mouse 2B4 NFAT-GFP reporter T cell hybridoma, pMX puro retroviral vector
T1 sequence (Q6GTX8 22-165 limits assumed): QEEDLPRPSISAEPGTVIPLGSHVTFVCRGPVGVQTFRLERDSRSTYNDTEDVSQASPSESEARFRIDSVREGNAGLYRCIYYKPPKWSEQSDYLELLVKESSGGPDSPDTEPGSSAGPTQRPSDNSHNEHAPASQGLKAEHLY
Protocol: For detection of LAIR-1 ligands: 2B4 T cell hybridoma cells stably transduced with an NFAT-GFP reporter and hLAIR-1-CD3ζ were analyzed as described (11).
2B4 T cell hybridoma cells were stably transduced with an NFAT-GFP reporter construct(40) and hLAIR-1-CD3ζ(15) and analyzed as described(15, 40).

[2] = molecular target: T2, hLAIR-1 (Homo sapiens, UniProt Q6GTX8); assay: FcεRI-induced degranulation assay, hLAIR-1 transfected RBL-2H3 cells; type: cell-based; set-up: expressed in transfected cells; conditions: plate-bound together with TNP-BSA 0.8 μg/ml
T2 sequence (Q6GTX8 22-287): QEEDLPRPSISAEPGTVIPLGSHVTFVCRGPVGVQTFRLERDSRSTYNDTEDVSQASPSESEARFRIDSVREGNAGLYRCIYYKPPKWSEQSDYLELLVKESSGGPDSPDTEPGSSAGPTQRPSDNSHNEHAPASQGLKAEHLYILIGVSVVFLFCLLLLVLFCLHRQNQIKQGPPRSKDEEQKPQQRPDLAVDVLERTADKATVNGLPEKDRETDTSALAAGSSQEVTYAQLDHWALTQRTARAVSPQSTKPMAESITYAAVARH
Protocol: 96-well MAXIsorp flat-bottom plates (Nunc) were coated overnight at 4° C. with BSA, or TNP conjugated to BSA (0.8 μg/ml) and indicated amounts of synthetic trimeric peptides (100 μl/well, 2 mM acetic acid in PBS). Meanwhile, untransfected or hLAIR-1a transfected RBL-2H3 (23) cells were sensitized with IgE anti-TNP mAbs at 4° C. for 30 minutes and subsequently washed for three times in medium (AIM-V; Gibco-BRL). After washings of the plates, 5.0×10^5 cells in 70 μl medium were added to each well, and plates were incubated at 37° C. for 1 hour. Subsequently, cultures were transferred to PCR tubes, centrifuged and the supernatants were assayed for β-glucuronidase activity as described (23).

[3] = test system: parental 2B4 NFAT-GFP reporter T cell hybridoma cells; assay: Inhibition of CD3 signaling in parental (untransfected) 2B4 NFAT-GFP reporter cells; type: cell-based, Mouse; conditions: for inhibition of CD3-induced activation of parental reporter cells: high peptide concentrations
[4] = molecular target: T2, hLAIR-1; assay: Inhibition of CD3 signaling in hLAIR-1a transfected 2B4 NFAT-GFP reporter cells; type: cell-based; set-up: expressed in transfected cells; host or cells: Mouse 2B4 NFAT-GFP reporter T cell hybridoma; conditions: for inhibitory capacity at low peptide concentration (in words): 1.1 μg/ml; for inhibition of CD3-induced activation of hLAIR-1 transfected reporter cells (in words): plate-bound peptide 10, 3.3, 1.1, 0.37 μg/ml; for inhibition of CD3-induced activation of hLAIR-1 transfected reporter cells: low peptide concentration 1.1 μg/ml
Protocol: For detection of inhibition of mouse CD3 signaling: 2B4 T cell hybridoma cells stably transduced with an NFAT-GFP reporter and hLAIR-1a were generated. 1.25 μg/ml anti-mouse CD3 (PharMingen, San Diego, Calif.) was coated overnight at 4° C. in 96-well MAXIsorp flat-bottom plates (Nunc) together with an indicated amount of synthetic trimeric peptides in a total volume of 100 μl/well. The next day, plates were washed and 200 μl of 2.5×10^5 reporter cells/ml in medium were added to each well, and plates were incubated at 37° C. for 22 hrs and then analyzed for GFP expression by flow cytometry on a FACSCalibur (BD Biosciences). Typically, ˜90 percent of the reporters expressed GFP upon CD3 stimulation.

[5] = molecular target: T3, hLAIR-1-IgG (Homo sapiens, UniProt Q6GTX8); assay: BIAcore binding of hLAIR-1-IgG to immobilized triple-helical peptides; conditions: hLAIR-1-IgG 780 nM, 5 μl/min, ~250 RU peptide
T3 construct: chimeric proteins of the extracellular domain of hLAIR-1 or LAIR-2 fused to the Fc region of human IgG1 were prepared; made in house
T3 sequence (Q6GTX8 22-165 limits assumed): T1 sequence (Q6GTX8 22-165 limits assumed)
Protocol: (§1) Surface plasmon resonance (BIAcore) binding studies were performed using a BIAcore2000 system (BIAcore AB, Uppsala, Sweden). Approximately 2000-3000 response units (RU) of acid-soluble human collagen type I or III (Sigma) were immobilized on a CM5 biosensor chip using the amine coupling kit as instructed by the supplier. Immobilized triple-helical peptides composed of GCO(GPO)10GCOG-NH2 ((GPO)10, also known as collagen-related peptide, CRP^6) and GCP(GPP)10GCPG-NH2 ((GPP)10) were described previously^6. Approximately 250 RU (GPP)10 or (GPO)10 peptide trimers were immobilized using a cysteine coupling kit according manufacturers instructions. Analysis was performed in buffer (125 mM NaCl, 2.5 mM CaCl2, 0.005% (v/v) Tween 20, and 25 mM Hepes, (pH 7.4)) at 25° C. at a flow rate of 20 μl/min for collagen I and III interaction-studies and 5 μl/min for the immobilized peptides. […] Increasing concentrations of hLAIR-1-IgG were injected and allowed to reach an equilibrium plateau for 10 minutes. The delay between injections was 13 min, during which time the biosensor chip was flushed with buffer. In case of peptide-binding studies, biosensor chips were regenerated by injection of 0.1 M H3PO4 (2 min, 5 μl/min).

[6] = molecular target: T4, LAIR-2 fusion protein (Homo sapiens, UniProt Q6ISS4); assay: BIAcore binding of LAIR-2 fusion protein to immobilized trimeric peptides; conditions: 5 μl/min, ~250 RU peptide
T4 construct: chimeric proteins of the extracellular domain of hLAIR-1 or LAIR-2 fused to the Fc region of human IgG1 were prepared; made in house
T4 sequence (Q6ISS4 22-152): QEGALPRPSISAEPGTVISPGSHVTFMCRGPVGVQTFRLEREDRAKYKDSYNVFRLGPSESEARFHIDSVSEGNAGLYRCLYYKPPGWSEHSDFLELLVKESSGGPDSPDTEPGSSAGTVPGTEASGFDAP
Protocol: as §1
The surface plasmon resonance binding studies were performed as described before(15). LAIR-2-IgG dimer concentration was calculated based on a theoretical mass of 82.5 kDa.

| Substance | most potent hLAIR-1 activators in order of strength [1] | inhibition of FcεRI-induced degranulation (β-glucuronidase release) [2] | inhibition of CD3-induced activation of hLAIR-1 transfected reporter cells (in words) [4] | further results |
| --- | --- | --- | --- | --- |
| GPC(GPP)5-GPRGRSGETGPAGPOGNOGPOGPOGPO-(GPP)5GPC-NH2 [II-56] | most potent hLAIR-1 activators | potent inhibitors | efficiently inhibiting | inhibition of CD3-induced activation of parental reporter cells [3]: ~30%; inhibitory capacity at low peptide concentration (in words) [4]: full inhibitory capacity; also recorded: full inhibitory potential |
| GPC(GPP)5-GPAGEOGREGSOGADGPOGRDGAAGVK-(GPP)5GPC-NH2 [II-47] | – | – | did not induce inhibition | – |
| GCP(GPP)10GCPG-NH2 [reference compound] | – | not | did not inhibit | binding of hLAIR-1-IgG to immobilized peptide [5]: did not; inhibition of CD3-induced activation of parental reporter cells (in words) [3]: did not inhibit; interaction of LAIR-2 with immobilized trimeric peptide [6]: not |
| GPC(GPP)5-GEGGPOGVAGPOGGSGPAGPOGPQGVK-(GPP)5GPC-NH2 [III-38] | most potent hLAIR-1 activators | – | efficiently inhibiting | inhibition of CD3-induced activation of hLAIR-1 transfected reporter cells [4]: ~60% |
| GPC(GPP)5-GMOGERGGLGSOGPKGDKGEOGGOGAD-(GPP)5GPC-NH2 [III-32] | – | – | – | functional triggering of hLAIR-1-CD3ζ (GFP expression, in words) [1]: potent LAIR-1 binders and activators |
| GPC(GPP)5-GTOGTDGPKGASGPAGPOGAQGPOGLQ-(GPP)5GPC-NH2 [II-30] | most potent hLAIR-1 activators | – | efficiently inhibiting | inhibition of CD3-induced activation of hLAIR-1 transfected reporter cells [4]: ~60% |
| GPC(GPP)5-GAOGLRGGAGPOGPEGGKGAAGPOGPO-(GPP)5GPC-NH2 [III-30] | most potent hLAIR-1 activators | potent inhibitors | efficiently inhibiting | inhibition of CD3-induced activation of parental reporter cells [3]: ~30%; inhibitory capacity at low peptide concentration (in words) [4]: full inhibitory capacity |
| GPC(GPP)5-GRAGEOGLQGPAGPOGEKGEOGDDGPS-(GPP)5GPC-NH2 [II-42] | most potent hLAIR-1 activators | – | – | – |
| GPC(GPP)5-GPAGPAGAOGPAGSRGAOGPQGPRGDK-(GPP)5GPC-NH2 [III-51] | most potent hLAIR-1 activators | – | – | functional triggering of hLAIR-1-CD3ζ (GFP expression, in words) [1]: potent LAIR-1 binders and activators |
